Biological target: T1, Histamine H3 receptor (Rattus norvegicus, UniProt Q9QYN8)
Experiment: In vitro antagonism of the histamine H3-receptor in the rat cerebral cortex.
Assay type: functional, tissue-based; call rule not given here

T1 sequence (Q9QYN8 whole entry): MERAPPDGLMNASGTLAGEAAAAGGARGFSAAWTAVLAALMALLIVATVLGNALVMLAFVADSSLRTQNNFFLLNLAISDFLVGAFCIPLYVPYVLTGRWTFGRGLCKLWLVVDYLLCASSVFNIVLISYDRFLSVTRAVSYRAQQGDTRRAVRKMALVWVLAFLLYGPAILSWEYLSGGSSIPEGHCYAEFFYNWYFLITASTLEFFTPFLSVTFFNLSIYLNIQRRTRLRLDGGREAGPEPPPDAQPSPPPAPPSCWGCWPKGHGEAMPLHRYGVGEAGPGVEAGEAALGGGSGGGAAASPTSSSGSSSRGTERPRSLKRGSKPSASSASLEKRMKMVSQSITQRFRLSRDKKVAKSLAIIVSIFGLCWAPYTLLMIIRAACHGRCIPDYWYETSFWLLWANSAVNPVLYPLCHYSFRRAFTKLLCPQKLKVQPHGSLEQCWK

Ki | Compound
> 10000 nM | c1ccc(CCNc2ncccn2)nc1
~200 nM | S=C(NCCc1c[nH]cn1)NC1CCCCC1
42 nM | FC(F)(F)c1ccc(N2CCC(c3cnc[nH]3)CC2)nc1
340 nM | c1csc(NCCc2cnc[nH]2)n1
~600 nM | O=[N+]([O-])c1ccc(SCc2c[nH]cn2)nc1
200 nM | c1ccc(NCCc2c[nH]cn2)nc1
~500 nM | S=C(NCCSCc1c[nH]cn1)NC1CCCCC1
170 nM | O=[N+]([O-])c1ccc(NCCCc2c[nH]cn2)nc1
13 nM | S=C(NCCCc1cnc[nH]1)NC1CCCCC1
53 nM | O=[N+]([O-])c1cc[n+]([O-])c(NCCc2c[nH]cn2)c1
~1000 nM | O=[N+]([O-])c1ccc(NCCc2ccccn2)nc1
70 nM | CNC(=S)NCCCCc1cnc[nH]1 [BURIMAMIDE]
200 nM | c1cnc(NCCc2c[nH]cn2)cn1
160 nM | Clc1cc(NCCc2cnc[nH]2)ccn1
29 nM | O=[N+]([O-])c1ccc(NCCc2c[nH]cn2)nc1
92 nM | c1ccc(SCCc2cnc[nH]2)nc1
400 nM | c1c[nH]c(SCCc2cnc[nH]2)n1
17 nM | FC(F)(F)c1ccc(NCCc2cnc[nH]2)nc1
240 nM | O=[N+]([O-])c1cccnc1NCCc1c[nH]cn1

Compound | Ki
S=C(NC1CCCCC1)N1CCC(c2cnc[nH]2)CC1 [THIOPERAMIDE] | 4.3 nM
COC(=O)c1ccc(NCCc2cnc[nH]2)nc1 | 42 nM

Biological target: T1, Histamine H3 receptor
Experiment: The compound was tested in vitro for antagonistic activity against H3-receptor in the rat cerebral cortex; Not active (tested up to 1000 nM)
Assay type: functional, tissue-based

Ki | Compound
Not Active | S=C(NCCCn1ccnc1)NC1CCCCC1
